Measured values published in patent US10280170B2, “Substituted 4,5,6,7-tetrahydro-pyrazolo[1,5-a]pyrazine derivatives and 5,6,7,8-tetrahydro-4H-pyrazolo[1,5-a][1,4]diazepine derivatives as Ros1 inhibitors” (Janssen Pharmaceutica NV, priority 2014, dated 2019).
Values joined by “and” are separate entries in the source; they are usually repeats but may differ in a detail not shown here. Equal entries are not always repeated.

Columns and labels:
[1] = tested on: Ba/F3 tumors containing wild-type Ros1; experiment: Efficacy study in mice bearing Ba/F3-Ros1 tumors, wild-type Ros1; assay type: in vivo, NMRI nude mice; details: oral gavage, 10 days
Method: Efficacy Studies in Mice Bearing Ba/F3-Ros1 Tumors
Approximately 2×10^6 Ba/F3 cells containing either wild-type, L2026M or G2032R mutant Ros1 were inoculated into the inguinal region of NMRI nude mice. When the resulting tumors reached a size of 250 to 350 mm^3, mice were randomly assigned to the different treatment groups (8 to 12 mice per group). Compounds formulated in 20% cyclodextrin were administered to the mice by oral gavage at various doses for 10-days once (QD) or twice (BID) a day. Tumor sizes were determined by caliper measurement on day 1 prior to treatment and then twice weekly for the duration of the study using the commonly following formula: tumor volume (mm^3)=(a×b^2/2); where ‘a’ represents the length, and ‘b’ the width of the tumor. Treatment/control (T/C) ratios were calculated at the end of the study based on the change in final relative tumor volumes.

Ros1 enzyme = molecular target: T1, Ros1 enzyme (Homo sapiens, UniProt P08922); experiment: Ros1 enzymatic assay; assay type: biochemical; details: Ros1 enzymatic assay; read-out: ROS1 pIC50 (converted)
T1 construct: 0.5 μg/ml Ros1 enzyme
How it was run: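 First, compounds meet Ros1 enzyme mix plus substrate mix containing IRS-Tide and 33P-labelled ATP at 20 μM. Next, incubation lasts 120 minutes at room temperature. Then EDTA stop buffer with streptavidin beads is added for 15 minutes, and bead-bound radioactivity is imaged.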

T1 sequence (P08922 28-2347): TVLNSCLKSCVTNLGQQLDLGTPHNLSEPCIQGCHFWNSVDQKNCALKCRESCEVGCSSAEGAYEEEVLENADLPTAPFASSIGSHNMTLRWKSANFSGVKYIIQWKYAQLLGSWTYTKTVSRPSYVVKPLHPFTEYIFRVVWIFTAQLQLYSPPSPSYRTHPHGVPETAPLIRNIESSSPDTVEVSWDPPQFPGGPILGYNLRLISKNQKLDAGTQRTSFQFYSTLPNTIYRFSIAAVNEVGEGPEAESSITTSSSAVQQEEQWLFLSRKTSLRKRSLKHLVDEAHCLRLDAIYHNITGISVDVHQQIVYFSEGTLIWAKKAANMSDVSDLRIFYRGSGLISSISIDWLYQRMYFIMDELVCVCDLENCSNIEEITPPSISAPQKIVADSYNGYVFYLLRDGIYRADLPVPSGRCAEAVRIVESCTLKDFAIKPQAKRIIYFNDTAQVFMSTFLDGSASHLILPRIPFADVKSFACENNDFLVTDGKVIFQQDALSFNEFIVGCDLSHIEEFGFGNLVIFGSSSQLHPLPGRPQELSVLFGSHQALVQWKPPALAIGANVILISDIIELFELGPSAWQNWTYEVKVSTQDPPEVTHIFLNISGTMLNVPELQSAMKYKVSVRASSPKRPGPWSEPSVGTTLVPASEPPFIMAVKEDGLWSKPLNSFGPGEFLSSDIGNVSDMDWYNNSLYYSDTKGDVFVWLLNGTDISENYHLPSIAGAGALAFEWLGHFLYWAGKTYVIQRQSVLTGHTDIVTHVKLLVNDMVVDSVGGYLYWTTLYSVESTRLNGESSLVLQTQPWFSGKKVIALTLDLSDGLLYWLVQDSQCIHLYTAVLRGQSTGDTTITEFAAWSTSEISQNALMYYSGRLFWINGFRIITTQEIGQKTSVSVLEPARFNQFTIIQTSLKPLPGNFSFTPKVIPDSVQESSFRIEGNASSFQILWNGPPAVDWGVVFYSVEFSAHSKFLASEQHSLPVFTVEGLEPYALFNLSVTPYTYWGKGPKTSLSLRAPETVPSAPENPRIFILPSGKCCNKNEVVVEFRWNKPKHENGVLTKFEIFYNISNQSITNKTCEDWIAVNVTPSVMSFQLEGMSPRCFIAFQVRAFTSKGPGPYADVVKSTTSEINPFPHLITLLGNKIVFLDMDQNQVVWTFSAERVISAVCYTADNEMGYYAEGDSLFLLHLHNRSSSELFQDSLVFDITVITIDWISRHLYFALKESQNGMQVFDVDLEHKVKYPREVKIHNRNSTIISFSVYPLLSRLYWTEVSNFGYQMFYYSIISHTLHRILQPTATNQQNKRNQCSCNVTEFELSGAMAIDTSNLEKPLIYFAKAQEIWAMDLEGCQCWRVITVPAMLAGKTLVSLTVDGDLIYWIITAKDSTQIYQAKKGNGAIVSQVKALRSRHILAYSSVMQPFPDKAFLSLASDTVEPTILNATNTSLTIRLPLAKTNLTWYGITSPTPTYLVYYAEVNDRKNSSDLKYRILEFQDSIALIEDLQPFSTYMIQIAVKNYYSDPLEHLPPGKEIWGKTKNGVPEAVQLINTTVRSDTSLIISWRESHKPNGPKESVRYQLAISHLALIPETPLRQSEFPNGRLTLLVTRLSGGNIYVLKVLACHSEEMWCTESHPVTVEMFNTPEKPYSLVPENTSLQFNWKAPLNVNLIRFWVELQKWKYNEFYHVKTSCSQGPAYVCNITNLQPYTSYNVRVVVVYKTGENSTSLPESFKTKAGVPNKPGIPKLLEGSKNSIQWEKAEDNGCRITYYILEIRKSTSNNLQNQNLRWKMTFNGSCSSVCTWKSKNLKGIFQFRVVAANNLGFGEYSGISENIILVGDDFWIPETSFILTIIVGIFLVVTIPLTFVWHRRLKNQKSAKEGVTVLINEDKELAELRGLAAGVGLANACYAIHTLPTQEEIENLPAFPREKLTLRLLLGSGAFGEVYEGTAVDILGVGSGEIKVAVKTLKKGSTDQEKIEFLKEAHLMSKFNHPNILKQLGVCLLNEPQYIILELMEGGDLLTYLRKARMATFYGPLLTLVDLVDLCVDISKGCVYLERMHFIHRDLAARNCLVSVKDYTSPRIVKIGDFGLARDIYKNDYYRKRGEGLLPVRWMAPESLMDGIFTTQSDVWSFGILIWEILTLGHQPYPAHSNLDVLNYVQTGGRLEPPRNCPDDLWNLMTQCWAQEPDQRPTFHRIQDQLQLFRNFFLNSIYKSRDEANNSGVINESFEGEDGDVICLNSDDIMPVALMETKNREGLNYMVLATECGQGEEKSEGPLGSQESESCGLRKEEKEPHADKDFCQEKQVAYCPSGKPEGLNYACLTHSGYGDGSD

| Structure (SMILES) | T/C (%) ([1]; 1.56 mg/kg QD) | T/C (%) ([1]; 3.125 mg/kg QD) | T/C (%) ([1]; 6.25 mg/kg BID) | T/C (%) ([1]; 6.25 mg/kg QD) | T/C (%) ([1]; 12.5 mg/kg BID) | T/C (%) ([1]; 12.5 mg/kg QD) | T/C (%) ([1]; 25 mg/kg BID) | T/C (%) ([1]; 25 mg/kg QD) | IC50 (Ros1 enzyme) [nM] | T/C (%) ([1]; 3.125 mg/kg BID) | T/C (%) ([1]; 12.5 mg/kg BID, 12.5 mg/kg) | T/C (%) ([1]; 50 mg/kg QD) | T/C (%) ([1]; 100 mg/kg BID) | melting point [°C] |
| --- | --- | --- | --- | --- | --- | --- | --- | --- | --- | --- | --- | --- | --- | --- |
| CC(C)c1ccc(COc2ccc(-c3c(-c4ccncc4)nn4c3C(=O)NCC4)cc2)cc1 [Compound 1] | 88 | 75 | 50 | 35 | 20 | 12 | −13 | −27 | 25.1 | – | – | – | – | – |
| CC(C)c1ccc(COc2ccc(-c3c(-c4ccncc4)nn4c3C(=O)N(CCO)CC4)cc2)cc1 [Compound 2] | – | – | 67 | – | – | 61 | – | 46 | 20 | 91 | 47% and 51% | 20 | −22 | 181 |
